Source: ChEMBL document CHEMBL1201862, “PubChem BioAssay data set” (2004)
The source made the active and inactive calls.

What was measured:
[1] = reduced cellular PGC1a acetyl-lysine signal – cell-based, cherry-picked samples, dose response (AID 720514); type: functional;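 further: potency may reflect raised or lowered acetylation signal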
INS1 = test: INS-1E survival protection against cytokine death – cell-based, luminescence, retest, dose response (AID 449756); type: functional; conditions: Rattus norvegicus;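 further: cell death triggered by IL-1 beta plus TNF-alpha plus IFN-gamma mixture; protective hits raise ATP signal compared with cytokine alone wells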
[2] = MIN6 cell viability loss – mouse insulinoma, cytotoxicity control, dose response (AID 2122); type: functional;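 further: confirmatory high-throughput counterscreen run to flag cytotoxic compounds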
[3] = molecular target: T1, Replicative DNA helicase DnaB (Mycobacterium tuberculosis, UniProt P9WMR3); test: DnaB intein splicing inhibitors, dose response, biochemical, cell-free fluorescence (AID 449749); type: functional
T1 sequence (P9WMR3 whole entry): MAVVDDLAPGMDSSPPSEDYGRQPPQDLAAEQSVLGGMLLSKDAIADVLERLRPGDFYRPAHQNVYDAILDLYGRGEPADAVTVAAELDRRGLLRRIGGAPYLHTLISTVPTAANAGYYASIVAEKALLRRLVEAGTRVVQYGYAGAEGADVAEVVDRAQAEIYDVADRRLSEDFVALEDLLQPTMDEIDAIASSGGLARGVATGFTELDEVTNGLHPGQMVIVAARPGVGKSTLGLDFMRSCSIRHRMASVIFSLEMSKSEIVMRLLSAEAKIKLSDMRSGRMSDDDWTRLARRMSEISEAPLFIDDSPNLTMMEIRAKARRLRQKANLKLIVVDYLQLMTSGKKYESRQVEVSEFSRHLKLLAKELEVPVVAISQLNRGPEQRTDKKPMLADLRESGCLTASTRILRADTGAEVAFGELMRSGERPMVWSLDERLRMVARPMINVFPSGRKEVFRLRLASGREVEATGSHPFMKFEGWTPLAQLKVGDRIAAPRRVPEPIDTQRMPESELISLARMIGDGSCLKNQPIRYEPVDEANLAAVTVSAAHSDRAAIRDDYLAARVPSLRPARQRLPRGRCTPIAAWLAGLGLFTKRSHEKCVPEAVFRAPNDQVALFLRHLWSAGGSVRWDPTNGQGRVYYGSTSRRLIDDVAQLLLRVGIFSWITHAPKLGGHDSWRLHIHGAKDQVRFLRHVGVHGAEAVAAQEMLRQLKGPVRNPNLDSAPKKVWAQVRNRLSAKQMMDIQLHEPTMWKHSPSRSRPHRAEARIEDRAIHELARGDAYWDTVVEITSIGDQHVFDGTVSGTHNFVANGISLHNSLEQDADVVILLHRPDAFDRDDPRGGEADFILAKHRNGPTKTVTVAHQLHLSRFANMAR

Protein RecA = molecular target: T2, Protein RecA (Mycobacterium tuberculosis, UniProt P9WHJ3); test: Fluorescence Cell-Free Homogeneous Dose Retest to Identify Inhibitors of RecA-Intein Splicing Activity. [Related pubchem assays (depositor defined):AID2097, AID2223, AID489010, AID492950]; type: functional
T2 sequence (P9WHJ3 whole entry): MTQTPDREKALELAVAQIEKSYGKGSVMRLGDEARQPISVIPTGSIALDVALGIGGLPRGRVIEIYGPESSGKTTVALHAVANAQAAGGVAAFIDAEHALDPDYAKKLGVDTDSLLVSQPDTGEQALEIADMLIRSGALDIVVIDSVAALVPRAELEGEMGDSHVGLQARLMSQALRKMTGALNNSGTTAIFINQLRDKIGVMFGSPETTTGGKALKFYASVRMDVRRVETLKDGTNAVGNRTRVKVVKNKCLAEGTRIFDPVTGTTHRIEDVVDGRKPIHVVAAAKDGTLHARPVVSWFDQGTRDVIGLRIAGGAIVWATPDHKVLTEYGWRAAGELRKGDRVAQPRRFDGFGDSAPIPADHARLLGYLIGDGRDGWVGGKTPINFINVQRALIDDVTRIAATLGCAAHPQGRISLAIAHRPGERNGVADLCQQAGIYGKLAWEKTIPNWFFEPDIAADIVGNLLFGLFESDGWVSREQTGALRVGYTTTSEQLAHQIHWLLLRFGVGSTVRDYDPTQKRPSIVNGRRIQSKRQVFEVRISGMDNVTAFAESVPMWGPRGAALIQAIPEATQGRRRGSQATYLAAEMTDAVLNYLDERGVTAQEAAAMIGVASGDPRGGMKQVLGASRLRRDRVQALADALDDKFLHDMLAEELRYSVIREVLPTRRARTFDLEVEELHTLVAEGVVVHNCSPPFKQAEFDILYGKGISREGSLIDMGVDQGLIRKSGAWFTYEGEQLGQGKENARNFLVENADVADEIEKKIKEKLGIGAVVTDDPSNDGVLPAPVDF

[4] = molecular target: T3, Ubiquitin-conjugating enzyme E2 N (Homo sapiens, UniProt P61088); type: functional;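 further: Dose-response confirmation in a TR-FRET assay detecting UBC13-driven polyubiquitin chain formation, inhibition measured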
T3 sequence (P61088 whole entry): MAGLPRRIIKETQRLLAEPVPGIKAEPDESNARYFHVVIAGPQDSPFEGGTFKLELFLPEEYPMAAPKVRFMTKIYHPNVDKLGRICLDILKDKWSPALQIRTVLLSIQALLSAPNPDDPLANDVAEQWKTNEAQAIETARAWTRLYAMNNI

[5] = decrease of insulin promoter-GFP reporter – imaging, high-content screening, mouse beta cells (AID 1628); type: functional; conditions: MIN6
Cytochrome P450 3A4 = Cytochrome P450 3A4 (Homo sapiens, UniProt P08684);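 further: CYP3A4 tested as one member of a cytochrome P450 panel screen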
Chain of Cytochrome P450 3A4 (P08684 whole entry): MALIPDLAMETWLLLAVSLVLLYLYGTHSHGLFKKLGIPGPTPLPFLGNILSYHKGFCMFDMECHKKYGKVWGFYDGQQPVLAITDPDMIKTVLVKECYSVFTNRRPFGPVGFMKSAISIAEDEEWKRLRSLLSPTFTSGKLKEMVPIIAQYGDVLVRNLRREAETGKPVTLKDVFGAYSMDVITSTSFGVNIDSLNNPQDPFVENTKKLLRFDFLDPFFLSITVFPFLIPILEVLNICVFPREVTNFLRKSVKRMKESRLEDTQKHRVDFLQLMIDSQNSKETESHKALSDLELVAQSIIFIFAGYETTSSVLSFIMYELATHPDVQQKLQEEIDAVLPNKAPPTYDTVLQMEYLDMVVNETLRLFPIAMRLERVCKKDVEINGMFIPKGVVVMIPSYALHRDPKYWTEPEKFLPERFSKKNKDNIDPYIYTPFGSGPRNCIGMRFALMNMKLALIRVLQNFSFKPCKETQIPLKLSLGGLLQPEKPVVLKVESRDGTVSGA

Cytochrome P450 2C9 = Cytochrome P450 2C9 (Homo sapiens, UniProt P11712)
Chain of Cytochrome P450 2C9 (P11712 whole entry): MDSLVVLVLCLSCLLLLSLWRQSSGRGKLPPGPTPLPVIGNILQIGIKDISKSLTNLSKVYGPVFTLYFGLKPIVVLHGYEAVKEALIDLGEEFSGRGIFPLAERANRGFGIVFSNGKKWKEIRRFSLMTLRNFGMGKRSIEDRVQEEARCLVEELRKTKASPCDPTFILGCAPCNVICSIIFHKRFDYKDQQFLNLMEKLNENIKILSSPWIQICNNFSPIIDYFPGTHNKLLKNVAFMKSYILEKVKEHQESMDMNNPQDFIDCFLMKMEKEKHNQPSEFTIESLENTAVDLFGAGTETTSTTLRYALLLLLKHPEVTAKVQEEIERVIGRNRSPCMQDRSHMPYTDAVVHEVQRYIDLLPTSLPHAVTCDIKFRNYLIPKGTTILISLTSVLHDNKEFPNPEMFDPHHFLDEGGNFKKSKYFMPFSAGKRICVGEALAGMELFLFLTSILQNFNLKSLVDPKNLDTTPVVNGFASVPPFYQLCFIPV

[6] = molecular target: T4, Heat shock factor protein 1 (Mus musculus, UniProt P38532); test: enhancement of HSF1-driven luciferase signal – cell-based, NIH3T3, luminescence, dose retest, confirmation (AID 435004); type: functional;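 further: stress induced by proteasome inhibitor MG132 added 30 min after compound; luciferase reporter driven by HSF1 response element in NIH3T3 cells; actives raise luminescence as potentiators of the MG132 stress response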
T4 sequence (P38532 whole entry): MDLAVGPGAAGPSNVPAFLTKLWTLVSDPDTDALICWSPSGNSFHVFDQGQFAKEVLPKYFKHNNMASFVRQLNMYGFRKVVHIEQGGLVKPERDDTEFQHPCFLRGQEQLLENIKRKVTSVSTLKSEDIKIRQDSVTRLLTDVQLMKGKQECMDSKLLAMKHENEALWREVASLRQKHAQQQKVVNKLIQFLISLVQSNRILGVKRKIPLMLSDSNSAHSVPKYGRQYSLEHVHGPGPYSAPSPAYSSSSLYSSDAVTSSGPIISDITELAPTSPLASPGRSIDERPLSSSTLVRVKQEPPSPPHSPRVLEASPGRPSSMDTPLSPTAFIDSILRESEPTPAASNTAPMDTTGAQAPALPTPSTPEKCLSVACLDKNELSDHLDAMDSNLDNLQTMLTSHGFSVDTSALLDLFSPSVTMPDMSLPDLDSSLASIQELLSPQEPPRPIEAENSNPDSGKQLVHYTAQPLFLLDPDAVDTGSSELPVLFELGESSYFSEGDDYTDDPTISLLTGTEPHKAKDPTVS

[7] = HEK-293T viability loss after treatment – luminescence, T-cell screen hits, cytotoxicity control for TCR NF-kB inhibitor project, dose response (AID 489026); type: functional, cell-based;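 further: cells exposed to compound about 14 hours before the viability readout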
[8] = DRD fibroblast viability loss – cell-based, non-viral oncogenic, luminescence, dose response (AID 1934); type: functional; conditions: Homo sapiens
BJ [9] = test: BJ-TERT fibroblast viability loss – cell-based, RAS-independent, luminescence, dose response (AID 1933); type: functional; conditions: Homo sapiens
BJ [10] = test: BJ-TERT-LT-ST fibroblast viability loss – cell-based, RAS-independent, luminescence, dose response (AID 1935); type: functional; conditions: Homo sapiens;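 further: BJ fibroblasts immortalized with TERT plus LT and ST oncogenes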
BJ [11] = test: cells; type: functional, cell-based; conditions: Homo sapiens
[12] = molecular target: Eukaryotic translation initiation factor 4E (Mus musculus, UniProt P63073); test: blockers of eIF4G binding by eIF4E – biochemical, TR-FRET, dose response (AID 855); type: functional;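 further: potency for disrupting eIF4E binding to eIF4GI seen as loss of FRET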
Chain of Eukaryotic translation initiation factor 4E (P63073 whole entry): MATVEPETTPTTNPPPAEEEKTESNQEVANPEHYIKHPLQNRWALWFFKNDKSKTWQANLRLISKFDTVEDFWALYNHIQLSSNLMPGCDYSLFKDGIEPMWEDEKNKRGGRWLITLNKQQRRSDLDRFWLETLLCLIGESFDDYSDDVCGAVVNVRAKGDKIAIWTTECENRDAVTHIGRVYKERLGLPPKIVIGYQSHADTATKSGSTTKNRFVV

[13] = microbe, parasite or virus in culture; type: functional; conditions: Mycobacterium tuberculosis
cells [14] = type: functional, cell-based
cells [15] = type: functional, cell-based; remark: listed apart in the source
[16] = viability loss in THP-1 monocytes – THP-1 cells, cytotoxicity control for Vif-APOBEC3G degradation inhibitor project, dose response (AID 1117359); type: functional; conditions: THP-1

Structure (SMILES): COc1cc(CNCCN2CCOCC2)ccc1OCc1ccc(Cl)cc1Cl
- AC50 [1]: 17.3 µM (active)

Structure (SMILES): c1ccc(Nc2nc(NCc3ccco3)c3ccccc3n2)cc1
- AC50 (INS1): 5.14 µM (active)
- IC50 [2]: 1.08 µM (active)
- AC50 [3]: 3.66 µM (active)
- EC50 (Protein RecA): 12 µM (active)
- IC50 [4]: > 20 µM (inactive)
- IC50 [5]: 1.22 µM (active)

Structure (SMILES): O=c1[nH]c(=O)n(Cc2ccco2)c2c1C(C(F)(F)F)(C(F)(F)F)NC(CCC1CCCCC1)=N2
- AC50 (Cytochrome P450 3A4): inconclusive
- AC50 (Cytochrome P450 2C9): 2.82 µM (inconclusive)

Structure (SMILES): Cc1nc2ccccc2n1CC(O)COCC1CC=CCC1 (configuration not stated)
- IC50 [2]: 1.67 µM (active)
- EC50 [6]: > 260 µM (inactive)
- IC50 [5]: 2.27 µM (active)

Structure (SMILES): O=C(Nc1ccc(CSc2ccccc2)cc1)c1ccc(CN2CCOCC2)cc1
- IC50 [7]: > 80 µM (inactive)

Structure (SMILES): CCN(CC(=O)Nc1ccccc1-c1ccccc1)Cc1nc(O)c2ccccc2n1
- EC50 [8]: 17.9 µM (active)
- EC50 (BJ [9]): 20.1 µM (active)
- EC50 (BJ [10]): > 75 µM (not active)
- EC50 (BJ [11]): 67.2 µM (active)

Structure (SMILES): Cc1nc(N2CCCCC2)sc1C(=O)c1cccc([N+](=O)[O-])c1
- EC50 [8]: > 150 µM (not active)
- EC50 (BJ [9]): > 150 µM (not active)
- EC50 (BJ [10]): > 150 µM (not active)
- EC50 (BJ [11]): > 150 µM (not active)

Structure (SMILES): COc1ccc(-c2noc(CSc3nc(N)c(-c4ccccc4)c(=O)[nH]3)n2)cc1OC
- IC50 [12]: > 64 µM (inactive)

Structure (SMILES): CCCCOP(=O)(OCCCC)C(Nc1ccc(C(=O)OCC)cc1)c1ccncc1 (configuration not stated)
- CC50 [13]: > 40 µM (active)

Structure (SMILES): O=S(=O)(/C=C/c1ccccc1)N1CCNCC1
- EC50 (cells [14]): > 350 µM (not active)
- EC50 (cells [15]): > 350 µM (not active)

Structure (SMILES): CCCC(C)NC(=O)CSCc1ccc(OC)cc1 (configuration not stated)
- CC50 [16]: > 40 µM (active)

Structure (SMILES): COc1cccc(-n2c(S)nnc2-c2cccc(S(=O)(=O)N(C)C)c2)c1
- AC50 [1]: 39 µM (active)
